Experimental data reported in article PMC6198068, “Discovery of a Novel Nav1.7 Inhibitor From Cyriopagopus albostriatus Venom With Potent Analgesic Efficacy” (Frontiers in Pharmacology, 2018).
Where a SMILES comes first, the peptide text is derived from it. Bridges are numbered along the chain shown (N, C = ends).

Columns and labels:
Nav1.2 = target: T1, Nav1.2 (Homo sapiens, UniProt Q99250); experiment: Whole-cell patch-clamp, Nav1.2 in HEK293T cells; format: cell-based; conditions: mean ± SEM
T1 construct: expressed in transfected cells; host or cells: HEK293T
From the text: (§1) The cDNA genes encoding rat Nav1.4 and human Nav1.7 were subcloned into vectors pRGB4 and pcDNA3.1-mod, respectively. Mutations of rNav1.4 (N655D, Q657E, and N655D/Q657E) and hNav1.7 (D816N, E818Q, and D816N/E818Q) were constructed using the Gene Tailor Site-Directed Mutagenesis system (Invitrogen, Carlsbad, CA, United States), according to the manufacturer’s instructions. Nav1.2–Nav1.7 and mutant plasmids together with eGFP were transiently transfected into HEK293T cells while Nav1.8 together with eGFP was transiently transfected into ND7/23 cells by Lipofectamine 2000 (Invitrogen, Carlsbad, CA, United States). Additionally, plasmids β1- and β2-eGFP encoding the human β1 and β2 subunits, respectively, were co-transfected with those encoding WT Nav1.7 and Nav1.7 mutations in HEK293T cells. […] Cells with green fluorescent protein fluorescence were selected for whole-cell patch-clamp recordings 24 h after transfection.
(§2) Whole-cell patch-clamp recordings were performed at room temperature (20–25°C) using an EPC 10 USB Patch Clamp Amplifier (HEKA, Elektronik, Lambrecht, Germany). […] Data was analyzed by software Igo Pro 6.10A (WaveMetrics, Lake Oswego, OR, United States), SigmaPlot 10.0 (Sigma-Aldrich, St. Louis, MO, United States), OriginPro 8 (OriginLab Corp., Northampton, MA, United States), and GraphPad Prism 5 (GraphPad Software, San Diego, CA, United States). […]

Nav1.5 = target: T2, Nav1.5 (Homo sapiens, UniProt Q14524); experiment: in vitro
T2 construct: expressed in transfected cells; host or cells: HEK293T
T2 sequence (Q14524 whole entry): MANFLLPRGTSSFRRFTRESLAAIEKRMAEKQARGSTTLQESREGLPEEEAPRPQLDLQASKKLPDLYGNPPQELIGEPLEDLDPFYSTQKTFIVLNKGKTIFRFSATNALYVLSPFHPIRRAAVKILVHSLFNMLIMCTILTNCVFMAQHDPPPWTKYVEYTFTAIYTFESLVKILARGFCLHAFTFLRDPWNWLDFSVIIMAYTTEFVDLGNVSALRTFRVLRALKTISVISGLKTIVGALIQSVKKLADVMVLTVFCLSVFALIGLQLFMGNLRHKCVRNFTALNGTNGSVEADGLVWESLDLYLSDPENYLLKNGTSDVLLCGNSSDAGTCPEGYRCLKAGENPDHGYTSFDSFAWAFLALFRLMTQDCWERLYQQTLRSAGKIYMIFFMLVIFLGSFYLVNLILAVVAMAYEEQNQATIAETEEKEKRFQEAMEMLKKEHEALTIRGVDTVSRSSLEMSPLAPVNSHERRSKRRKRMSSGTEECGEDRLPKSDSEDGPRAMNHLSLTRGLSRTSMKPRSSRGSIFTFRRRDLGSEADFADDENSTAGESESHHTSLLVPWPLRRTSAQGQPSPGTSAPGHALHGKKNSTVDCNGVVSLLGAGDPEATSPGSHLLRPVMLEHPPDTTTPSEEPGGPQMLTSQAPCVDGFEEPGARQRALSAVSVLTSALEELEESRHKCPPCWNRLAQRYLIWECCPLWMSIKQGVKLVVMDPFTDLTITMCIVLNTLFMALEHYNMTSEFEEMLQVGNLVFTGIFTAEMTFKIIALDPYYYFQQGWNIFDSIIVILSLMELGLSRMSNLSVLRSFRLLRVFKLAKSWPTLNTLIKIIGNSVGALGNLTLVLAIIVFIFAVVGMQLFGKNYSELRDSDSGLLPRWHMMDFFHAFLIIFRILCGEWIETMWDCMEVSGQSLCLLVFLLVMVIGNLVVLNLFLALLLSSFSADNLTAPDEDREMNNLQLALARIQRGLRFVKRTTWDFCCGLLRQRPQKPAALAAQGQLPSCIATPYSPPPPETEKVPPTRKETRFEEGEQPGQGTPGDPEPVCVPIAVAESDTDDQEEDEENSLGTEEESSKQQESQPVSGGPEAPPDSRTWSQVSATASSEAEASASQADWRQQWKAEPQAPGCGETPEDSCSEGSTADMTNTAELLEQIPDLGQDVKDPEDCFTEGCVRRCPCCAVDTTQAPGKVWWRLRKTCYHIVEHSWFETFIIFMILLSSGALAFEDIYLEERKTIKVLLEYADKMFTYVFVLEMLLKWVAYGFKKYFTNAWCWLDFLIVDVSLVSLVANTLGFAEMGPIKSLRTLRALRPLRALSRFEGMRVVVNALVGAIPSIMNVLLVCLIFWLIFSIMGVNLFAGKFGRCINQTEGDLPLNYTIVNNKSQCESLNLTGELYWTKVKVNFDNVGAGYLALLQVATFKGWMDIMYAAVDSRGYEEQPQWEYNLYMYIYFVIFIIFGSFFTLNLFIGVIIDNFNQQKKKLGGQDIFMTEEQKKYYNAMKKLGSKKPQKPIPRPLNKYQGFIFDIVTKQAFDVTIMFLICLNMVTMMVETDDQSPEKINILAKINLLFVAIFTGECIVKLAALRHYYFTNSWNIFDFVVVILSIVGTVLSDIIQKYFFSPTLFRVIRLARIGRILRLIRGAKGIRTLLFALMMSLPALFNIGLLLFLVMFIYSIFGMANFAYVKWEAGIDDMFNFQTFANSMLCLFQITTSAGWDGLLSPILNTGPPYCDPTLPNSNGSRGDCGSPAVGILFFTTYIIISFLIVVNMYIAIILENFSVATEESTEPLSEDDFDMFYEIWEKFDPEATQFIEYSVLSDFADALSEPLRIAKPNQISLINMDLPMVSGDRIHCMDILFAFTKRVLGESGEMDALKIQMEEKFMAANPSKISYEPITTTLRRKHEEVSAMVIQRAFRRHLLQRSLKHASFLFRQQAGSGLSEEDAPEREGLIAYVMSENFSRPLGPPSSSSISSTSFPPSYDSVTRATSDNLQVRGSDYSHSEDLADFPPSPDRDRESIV
From the text: as §1, with “cells. Human Nav1.9 was transfected into ND7/23 cells according to a previous report ([Zhou et al., 2017]).” for “cells.”
as §2
(§3) Concentration-response curves were fitted using the following Hill logistic equation: y = fmax − (fmax − fmin)/(1 + (x/IC50)^n), where fmax and fmin, respectively, represent the channel’s maximum and minimum responses to toxins, fmin was set to 0, x represents toxin concentration and n is an empirical Hill coefficient. […] Peak inward currents from steady-state inactivation were normalized by the maximum current amplitude and fit with a Boltzmann equation I = Imin + 1/(1 + exp[Vm − V1/2/k]) where I is the current amplitude measured during the test depolarization, V1/2 is the midpoint of inaction, and k is the slope factor. […]

Nav1.7/D816N = target: T3, Nav1.7/D816N (Homo sapiens, UniProt Q15858, D827N); experiment: Time course of Nav1.7/D816N inhibition and recovery upon washing; format: cell-based; conditions: 1 μM, n = 4
T3 construct: expressed in transfected cells; host or cells: HEK293T
From the text: as §1, §2

rat Nav1.4 = target: T4, rat Nav1.4 (Rattus norvegicus, UniProt P15390); experiment: Whole-cell patch-clamp, WT Nav1.4 in HEK293T cells; format: cell-based
T4 construct: expressed in transfected cells; host or cells: HEK293T
T4 sequence (P15390 whole entry): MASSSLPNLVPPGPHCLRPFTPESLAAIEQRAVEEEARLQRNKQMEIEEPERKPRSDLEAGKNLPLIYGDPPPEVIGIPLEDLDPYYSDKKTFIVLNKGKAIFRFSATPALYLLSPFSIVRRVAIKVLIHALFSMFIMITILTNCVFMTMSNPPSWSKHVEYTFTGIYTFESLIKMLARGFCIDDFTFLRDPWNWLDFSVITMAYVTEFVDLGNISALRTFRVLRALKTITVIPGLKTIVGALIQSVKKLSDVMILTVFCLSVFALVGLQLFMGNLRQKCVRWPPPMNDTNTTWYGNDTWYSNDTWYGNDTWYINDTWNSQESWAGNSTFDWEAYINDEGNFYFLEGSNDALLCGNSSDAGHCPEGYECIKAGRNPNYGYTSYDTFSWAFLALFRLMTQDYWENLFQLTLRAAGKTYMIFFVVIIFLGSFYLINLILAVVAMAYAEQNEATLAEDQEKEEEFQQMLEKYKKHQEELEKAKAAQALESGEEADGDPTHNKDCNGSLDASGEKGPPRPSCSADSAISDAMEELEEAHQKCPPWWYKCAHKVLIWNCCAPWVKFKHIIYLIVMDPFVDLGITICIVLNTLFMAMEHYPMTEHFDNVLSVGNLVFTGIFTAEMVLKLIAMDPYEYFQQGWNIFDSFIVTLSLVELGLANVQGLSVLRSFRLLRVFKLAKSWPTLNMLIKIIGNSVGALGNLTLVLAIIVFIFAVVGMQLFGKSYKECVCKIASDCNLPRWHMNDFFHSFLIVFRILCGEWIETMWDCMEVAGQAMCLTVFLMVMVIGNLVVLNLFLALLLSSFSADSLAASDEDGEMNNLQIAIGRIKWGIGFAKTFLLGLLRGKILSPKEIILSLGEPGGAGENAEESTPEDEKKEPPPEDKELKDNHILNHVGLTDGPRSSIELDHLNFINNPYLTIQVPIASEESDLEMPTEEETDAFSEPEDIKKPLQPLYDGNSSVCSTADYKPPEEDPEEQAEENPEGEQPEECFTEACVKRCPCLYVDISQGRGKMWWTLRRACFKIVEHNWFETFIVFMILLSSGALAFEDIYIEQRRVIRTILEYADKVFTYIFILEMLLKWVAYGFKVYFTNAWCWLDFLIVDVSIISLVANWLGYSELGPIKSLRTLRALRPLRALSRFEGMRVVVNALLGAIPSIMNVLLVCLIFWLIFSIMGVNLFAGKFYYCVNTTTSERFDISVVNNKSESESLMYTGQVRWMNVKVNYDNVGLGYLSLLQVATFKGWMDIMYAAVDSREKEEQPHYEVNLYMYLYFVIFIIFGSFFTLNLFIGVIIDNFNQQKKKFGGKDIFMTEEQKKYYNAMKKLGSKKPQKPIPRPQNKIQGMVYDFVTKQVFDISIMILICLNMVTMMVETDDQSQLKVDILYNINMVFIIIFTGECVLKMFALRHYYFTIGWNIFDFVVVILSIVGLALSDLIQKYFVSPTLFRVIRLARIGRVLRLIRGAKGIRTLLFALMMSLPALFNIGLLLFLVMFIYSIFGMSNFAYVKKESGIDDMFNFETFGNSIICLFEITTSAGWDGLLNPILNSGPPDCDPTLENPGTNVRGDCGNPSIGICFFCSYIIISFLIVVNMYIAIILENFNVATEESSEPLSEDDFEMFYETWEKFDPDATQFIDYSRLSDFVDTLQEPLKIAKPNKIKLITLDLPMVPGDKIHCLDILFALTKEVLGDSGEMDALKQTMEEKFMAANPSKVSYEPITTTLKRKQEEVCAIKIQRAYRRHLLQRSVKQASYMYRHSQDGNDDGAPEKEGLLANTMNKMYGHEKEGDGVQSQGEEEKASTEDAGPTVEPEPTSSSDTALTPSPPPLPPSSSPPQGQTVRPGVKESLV
From the text: The cDNA genes encoding rat Nav1.4 and human Nav1.7 were subcloned into vectors pRGB4 and pcDNA3.1-mod, respectively. Mutations of rNav1.4 (N655D, Q657E, and N655D/Q657E) and hNav1.7 (D816N, E818Q, and D816N/E818Q) were constructed using the Gene Tailor Site-Directed Mutagenesis system (Invitrogen, Carlsbad, CA, United States), according to the manufacturer’s instructions. Nav1.2–Nav1.7 and mutant plasmids together with eGFP were transiently transfected into HEK293T cells while Nav1.8 together with eGFP was transiently transfected into ND7/23 cells by Lipofectamine 2000 (Invitrogen, Carlsbad, CA, United States). Additionally, plasmids β1- and β2-eGFP encoding the human β1 and β2 subunits, respectively, were co-transfected with those encoding WT Nav1.7 and Nav1.7 mutations in HEK293T cells. Human Nav1.9 was transfected into ND7/23 cells according to a previous report ([Zhou et al., 2017]). HEK293T and ND7/23 cells were grown under standard tissue culture conditions (5% CO2, 37°C) in Dulbecco’s modified Eagle’s medium (DMEM) supplemented with 10% fetal bovine serum (FBS). Cells with green fluorescent protein fluorescence were selected for whole-cell patch-clamp recordings 24 h after transfection.
Whole-cell patch-clamp recordings were performed at room temperature (20–25°C) using an EPC 10 USB Patch Clamp Amplifier (HEKA, Elektronik, Lambrecht, Germany). Suction pipettes with access resistance of 2.0–3.0 MΩ were made from borosilicate glass capillary tubes (thickness = 0.225 mm) using a two-step vertical microelectrode puller (PC-10; Narishige, Tokyo, Japan). The standard pipet solution contained (in mM): 140 CsCl, 10 NaCl, 1 EGTA, and 10 HEPES (pH 7.4). Bath solution contained (in mM): 140 NaCl, 2 CaCl2, 1 MgCl2, 5 KCl, 20 HEPES (pH 7.4), and 10 glucose. All chemicals were the products of Sigma-Aldrich (St. Louis, MO, United States) and dissolved in water. […] Data was analyzed by software Igo Pro 6.10A (WaveMetrics, Lake Oswego, OR, United States), SigmaPlot 10.0 (Sigma-Aldrich, St. Louis, MO, United States), OriginPro 8 (OriginLab Corp., Northampton, MA, United States), and GraphPad Prism 5 (GraphPad Software, San Diego, CA, United States). […]
as §3

hot plate test in mice = experiment: Hot plate test; format: in vivo, ICR mice; conditions: 55 ± 1°C, 30 min after injection, control 10.6 ± 1.1 s, mean ± SEM, n = 6–8
Description: (§4) The ICR mice (18–22 g) used in this study were purchased from the Experimental Animal Center of SLac-kinda (Changsha, China). The animals were maintained at 20–25°C and freely allowed to standard rodent chow and water ad libitum. Ethical approval for in vivo experiments in animals was approved by the Animal Care and Use Committee (ACUC) at the Hunan Province Animal Management Office (HPAMO).
According to a previous method ([Meng et al., 2017]), a hot plate apparatus (model YLS-21A, Jinan, China) maintained at 55 ± 1°C, was used to measure the pain threshold of mice subjected to a thermal stimulus. Each female mouse was placed on hot plate to observe its pain response (hind-paw-licking or jumping) acted as its own control. The mice whose latent response times were shorter than 5 s or longer than 30 s were excluded from the test.

[1] = tested on: formalin-induced paw licking in mice; experiment: Formalin-induced paw licking; format: in vivo, ICR mice; conditions: for paw licking time, Phase I: control 90.3 ± 6.6 s; for paw licking time, Phase I / paw licking time, Phase II: mean ± SEM, n = 6–8; for paw licking time, Phase II: control 197.7 ± 20.7 s
Description: as §4
A formalin test was performed according to the previous method ([Owoyele et al., 2005]). […] The time spent licking the injected paw by each mouse was recorded by a digital stopwatch during Phase I (0–15 min post-injection) and Phase II (15–40 min post-injection).

SMILES: CC(C)C[C@H](NC(=O)[C@H](CC(=O)O)NC(=O)[C@H](Cc1ccc(O)cc1)NC(=O)[C@H](CCCCN)NC(=O)[C@@H]1CSSC[C@@H]2NC(=O)[C@H](CCCCN)NC(=O)[C@H](CC(=O)O)NC(=O)[C@H](CC(N)=O)NC(=O)[C@H](CO)NC(=O)[C@@H]3CCCN3C(=O)[C@H](CC(N)=O)NC(=O)[C@@H]3CSSC[C@H](NC(=O)[C@H](C(C)C)NC(=O)[C@H](CC(C)C)NC(=O)[C@H](CO)NC(=O)[C@H](CO)NC(=O)[C@H](CO)NC(=O)[C@H](CCCCN)NC(=O)[C@H](CSSC[C@H](NC(=O)[C@H](C)N)C(=O)N[C@@H](CC(C)C)C(=O)NCC(=O)N[C@@H](Cc4ccccc4)C(=O)NCC(=O)N[C@@H](CCC(=O)O)C(=O)N[C@@H](CCCCN)C(=O)N3)NC2=O)C(=O)N[C@@H](CO)C(=O)N[C@@H](CCC(N)=O)C(=O)N[C@@H](CCCCN)C(=O)N[C@@H](Cc2c[nH]cn2)C(=O)N[C@@H](CCCCN)C(=O)N[C@@H](Cc2c[nH]c3ccccc23)C(=O)N1)C(=O)O [Ca2a] (H-ACLGFGEKCNPSNDKCCKSSSLVCSQKHKWCKYDL-OH; disulfide 2-17, 9-24, 16-31 (inferred); N-terminus and C-terminus assumed)
- decrease of Nav1.2 current amplitude (Nav1.2; 1 μM, 50 ms to −10 mV from −100 mV): 82.6 ± 2.7%
- IC50 (Nav1.2; whole-cell patch-clamp, n = 4–7 cells per data point): 0.216 ± 0.0091 µM
- selectivity ratio (Nav1.5; cardiac isoform Nav1.5 vs Nav1.7, read-out: selectivity for Nav1.7 against Nav1.5): > 100
- IC50 (Nav1.5; cardiac muscle isoform, whole-cell patch-clamp, HEK293T): > 10 µM
- inhibitory effect on Nav1.5 currents (Nav1.5; up to 10 μM, HEK293T): no inhibitory effects
- recovery of Nav1.7/D816N current on washout (Nav1.7/D816N; extended washout): did not recover
- τon, Nav1.7/D816N (Nav1.7/D816N): 18.4 ± 1.3 s
- inhibitory effect on WT Nav1.4 (rat Nav1.4; 1 μM, HEK293T, n = 4–5 cells): no inhibitory effect
- selectivity for Nav1.7 against Nav1.4 (rat Nav1.4; skeletal isoform Nav1.4 vs Nav1.7): more than 100 fold
- IC50 (rat Nav1.4; skeletal muscle isoform, whole-cell patch-clamp, HEK293T): > 10 µM
- inhibitory effect on Nav1.4 currents (rat Nav1.4; up to 10 μM, HEK293T): no inhibitory effects
- latency time, hot plate (hot plate test in mice; 50 μg/kg i.p.): 12.9 ± 0.8 s
- latency time, hot plate (hot plate test in mice; 100 μg/kg i.p.): 15.4 ± 1.2 s
- latency time, hot plate (hot plate test in mice; 200 μg/kg i.p.): 18.1 ± 1.6 s
- paw licking time, Phase I ([1]; 0–15 min, 50 μg/kg i.p. 30 min before 5% formalin): 80.1 ± 4.6 s
- paw licking time, Phase I ([1]; 0–15 min, 100 μg/kg i.p. 30 min before 5% formalin): 79.4 ± 9.5 s
- paw licking time, Phase I ([1]; 0–15 min, 200 μg/kg i.p. 30 min before 5% formalin): 75.6 ± 7.7 s
- analgesic effect on Phase I compared to control ([1]; 0–15 min, Ca2a 50, 100, 200 μg/kg, morphine 100 μg/kg, i.p.): no analgesic effect
- paw licking time, Phase II ([1]; 15–40 min, 50 μg/kg i.p. 30 min before 5% formalin): 100.9 ± 16.2 s
- paw licking time, Phase II ([1]; 15–40 min, 100 μg/kg i.p. 30 min before 5% formalin): 67.2 ± 20.2 s
- paw licking time, Phase II ([1]; 15–40 min, 200 μg/kg i.p. 30 min before 5% formalin): 40.5 ± 7.1 s
- analgesic effect on Phase II ([1]; 15–40 min, 50, 100, 200 μg/kg i.p.): significant analgesic effect in a dose-dependent manner
- analgesia relative to morphine, formalin test ([1]; formalin, hot plate and writhing together, Ca2a vs morphine): dose-dependently equipotent or stronger analgesia than morphine
